The values below come from US7932287B2, “Therapeutic compositions and uses” (ChemGenes Corporation, priority 2004, dated 2011).

Where two headings read alike, the source gives them in different places.

The test system of assay [1] is dogs with Batten Disease (Juvenile Neuronal Ceroid Lipofuscinosis). The settings on record: cited from earlier work.
The subject of assay [2] is child who was afflicted with LINCL. The experiment in a line: Exogenous L-carnitine given to the LINCL child for over three years. In kind it is in vivo, human. As to the method:
(§1) Child had been taking the supplements/vitamins listed in Appendix B for about three years before the start of TML therapy. In addition, they had been taking clonazepam (5-(2-chlorophenyl)-1,3-dihydro7-nitro-2H-1,4-benzodiazepin-2-one) which is sold under the trade name Klonopin by F. Hoffmann-La Roche Ltd. (Basel, Switzerland) for control of constant Myoclonic seizures for about the same time according to the following daily dosage: (a) at waking: ½ of one 0.5 mg tablet, (b) Every four hours after waking, ¼ of one 0.5 mg tablet, (c) At bedtime: ½ of one 0.5 mg tablet. They also took one (1) 25 mg capsule of nitrofurantoin macrocrystals (sold under the name Macrodantin by Procter & Gamble Pharmaceuticals, Cincinnati Ohio) once per day.
In summary, L-carnitine plays a key and critical role in enhancing fat metabolism. Reports attest to the fact that L-carnitine works by transporting fatty acids to be burned for fuel, increasing both energy supply and lean muscle mass. […] This contrasts with the apparent need in Late Infantile Neuronal Ceroid Lipofuscinosis (LINCL-one form of Batten Disease) of the correct operation of the endogenous production of L-carnitine. […] This also was not observed by the parents of the child who was afflicted with LINCL (discussed later).

The subject of assay [3] is child diagnosed with Late Infantile Neuronal Ceroid Lipofuscinosis (LINCL). As to the kind of experiment: Blood work (standard clinical blood tests) before and after TML therapy. In kind it is in vivo, human. More on the design: Glutamine / Taurine / Carnitine, Total / Carnitine, Esthers / Alanine / Carbon Dioxide / BUN / Hgb / HCT / RDW / ABS Lymphocytes / Glycine: unit not given here. As for the experimental part: as §1
(§2) “Baseline” blood work was done after an overnight fast on the morning of Nov. 19, 2003. Child received their usual supplements/vitamins, clonazepam, and macrodantin. TML, as synthesized in Example 1 was given to the patient (5 mg of TML per day for a […], ending Dec. 28, 2003). Between Dec. 28, 2003 and Jan. 24, 2004 we gave an alternating daily dose of 5 mg/day and 10 mg/day. On Jan. 24, 2004 and till the “new” blood work was done on Jan. 29, 2004, the patient received 10 mg/day by usually taking 5 mg of TML with breakfast and 5 mg of TML with dinner. They received 5 mg per dose during the duration of the experiment. In other words, they received TML once per day on days that they received 5 mg, and TML twice per day on days that they received 10 mg of TML. The TML was administered in powder form intermixed with their food.
The child's bloodwork results are in table 1, below and the empirical nature of the child's improvement is evidenced by the follow up blood results. These blood tests were standard clinical tests carried out at Children's Hospital of Pittsburgh.

Assay [4] has as its system L-carnitine biosynthesis. The settings on record: rats; increased amount of the intermediate in the bloodstream; cited from earlier work.
Assay [5] deals with child diagnosed with Late Infantile Neuronal Ceroid Lipofuscinosis (LINCL). The experiment in a line: Physical condition of the patient after 9 weeks of TML therapy (parents' and physicians' observations). The settings on record: TML 5 mg-30 mg per day after Jan. 29, 2004, through January 2005. In kind it is in vivo, human.
Assay [6] has as its system L-carnitine biosynthesis. The note with it: human infants & adults; increased amount of the intermediate in the bloodstream; cited from earlier work.
The test system of assay [7] is child diagnosed with Late Infantile Neuronal Ceroid Lipofuscinosis (LINCL). The experiment in a line: Physical condition of the patient after 9 weeks of TML therapy (parents' and physicians' observations). In kind it is in vivo, human. As for the experimental part:
as §1, §2
Child's General Physical Condition Before the Start of TML Therapy (Based on Parents' Observations):
(The Physical Appearance of the Patient After the Stated 9 Weeks of TML Therapy.)

[8] abbreviates: exogenous carnitine, dogs with Juvenile Neuronal Ceroid Lipofuscinosis.
The mark [9] stands for this setting: Jan. 29, 2004, after TML, baseline high.
[10] abbreviates: Jan. 29, 2004, after TML, baseline normal.

Turning to `C[N+](C)(C)C[C@H](O)CC(=O)[O-]` [L-carnitine, L-b-hydroxy-g-n-trimethylaminobutyric acid], the “Need for endogenous production of L-carnitine” value in assay [1] (exogenous L-Carnitine to dogs with Batten Disease) was “not ameliorated”. For the same molecule, in assay [1] (setting [8]), the “Function of the dogs” value was “more functional” and the “Life span versus untreated dogs (lived longer)” value is on record as 10%. Moreover, in assay [2], the “Metabolic changes or marked outward observations of their condition” value was “without significant metabolic changes or marked outward observations of their condition”.
As for `C[N+](C)(C)CCCCC(N)C(=O)[O-]` [TML, N-6-trimethyl-L-lysine], the Hgb in assay [3] (Jan. 29, 2004, after 9 weeks of TML 5-10 mg/day in food, overnight fast, baseline Nov. 19, 2003: 14.4 (high)) is 14. The same molecule showed a BUN in assay [3] (Jan. 29, 2004, after 9 weeks of TML 5-10 mg/day, baseline 2 (low), 6 is norm) of 5. For the same molecule, the “ABS Lymphocytes” value in assay [3] (Jan. 29, 2004, after 9 weeks of TML 5-10 mg/day, baseline 2.2 (low)) turned out to be 2.5. For the same molecule, the “Carnitine, Esthers” value in assay [3] (Jan. 29, 2004, after 9 weeks of TML 5-10 mg/day, baseline 7 (normal)) amounted to 10. In assay [3] (Jan. 29, 2004, after 9 weeks of TML 5-10 mg/day, baseline 11.5), the RDW came to 12.3. In assay [3] (Jan. 29, 2004, after 9 weeks of TML 5-10 mg/day, baseline 24 (high)), this molecule displayed a Taurine of 19. In addition, the “Carbon Dioxide” value in assay [3] (Jan. 29, 2004, after 9 weeks of TML 5-10 mg/day, baseline 32 (high)) was found to be 22. For the same molecule, the “Carnitine, Total” value in assay [3] (Jan. 29, 2004, after 9 weeks of TML 5-10 mg/day, baseline 40 (normal)) is recorded as 43. This molecule also showed an HCT in assay [3] (Jan. 29, 2004, after 9 weeks of TML 5-10 mg/day, baseline 42 (high)) of 40.3. The molecule further returned a Glycine in assay [3] (Jan. 29, 2004, after 9 weeks of TML 5-10 mg/day, baseline 50 (high)) of 25. This molecule also yielded an AST in assay [3] (Jan. 29, 2004, after 9 weeks of TML 5-10 mg/day, baseline 60 (high), 40 is norm) of 50. The molecule also showed an Alanine in assay [3] (Jan. 29, 2004, after 9 weeks of TML 5-10 mg/day, baseline 87 (high)) of 47. This molecule yielded a Glutamine in assay [3] (Jan. 29, 2004, after 9 weeks of TML 5-10 mg/day, baseline 99 (high)) of 70. This molecule had a Platelets in assay [3] (Jan. 29, 2004, after 9 weeks of TML 5-10 mg/day, baseline 586 (high), 369 norm) of 461. In assay [3] (setting [9]), the “Alanine, Clinical Range” value was “normal”; the “Carbon Dioxide, Clinical Range” value is on record as “normal”; the “Glutamine, Clinical Range” value was “normal”; the “Glycine, Clinical Range” value is recorded as “normal”. In addition, in assay [3] (setting [9]), the “HCT, Clinical Range” value is given as “normal”; the “Hgb, Clinical Range” value is reported as “normal”; the “RDW, Clinical Range” value was “normal”; the “Taurine, Clinical Range” value is reported as “normal”. The “AST, Clinical Range” value in assay [3] (Jan. 29, 2004, after TML, baseline high, 40 is norm) is on record as “high”. Besides, in assay [3] (Jan. 29, 2004, after TML, baseline high, 369 norm), the “Platelets, Clinical Range” value was “high”. Moreover, the “ABS Lymphocytes, Clinical Range” value in assay [3] (Jan. 29, 2004, after TML, baseline low) is recorded as “normal”. The “BUN, Clinical Range” value in assay [3] (Jan. 29, 2004, after TML, baseline low, 6 is norm) is reported as “(low)”. In assay [3] (setting [10]), the “Carnitine, Esthers, Clinical Range” value is reported as “normal” and the “Carnitine, Total, Clinical Range” value is listed as “normal”. The “Elevation of serum amino acids (examining physician's comment)” value in assay [3] (Jan. 29, 2004, after TML, baseline: alanine elevated, glutamine increased) is “No significant elevation of serum Amino Acids”. Moreover, in the assay on L-carnitine biosynthesis [4], the “Increase of the production of L-carnitine” value (“Increase” for short) was 100 fold. In addition, in assay [5], the “Condition on continued TML” value is on record as “remained stable”. The “Increase” value in the assay with L-carnitine biosynthesis [6] is reported as 3 fold. Also, in assay [7] (after 9 weeks of TML therapy), the “Eye movement and pupillary response” value is “more eye movement and even the emergence of “purposeful” eye movement and a faster pupillary response”; the Hypertonicity of legs entry is “still “hypertonic””; the Swallowing entry is “very much improved, almost normal”. For the same molecule, the “Hypertonicity of arms, hands and fingers” value in assay [7] (after 9 weeks of TML therapy, also observed by a physiatrist and neurologist) is “notable reduction”. The “Cyanosis symptoms in the hands and feet” value in assay [7] (after 9 weeks of TML therapy, before: chronically cyanotic) is on record as “virtually no cyanosis”. Moreover, the Bowel movements result in assay [7] (after 9 weeks of TML therapy, before: two or three days without bowel movement, enema needed) is “moving their bowels on their own one to three times a day”. Further, in assay [7] (after approximately the first two weeks of TML, before: sleep interrupted 1 to 3 times per night), the “Insomnia / sleeping through the night” value is on record as “The insomnia was gone”. Also, the “Hyperammonemic condition (blue hands and feet)” value in assay [7] (after the administration of TML) is given as “amelioration of the hyperammonemic condition”. For the same molecule, in assay [7] (exogenous TML to the LINCL child), the “Metabolic and outward, observable changes to their condition” value is “yielded significant metabolic and outward, observable changes to their condition”. For the same molecule, the “Full body jerk (Myoclonus) elicited by touch” value in assay [7] (neurologist's office visit Jan. 30, 2004) was “no longer elicited a full body jerk”. Moreover, the Myoclonic seizures result in assay [7] (neurologist's office visit Jan. 30, 2004, clonazepam continued) was “markedly reduced in severity and in number”.
As to `C[N+](C)(C)CCCC(=O)[O-]` [g-butyrobetaine, 4-N-trimethylaminobutyrate, reference compound], the “Increase” value in the assay on L-carnitine biosynthesis [4] is listed as 100 fold; with L-carnitine biosynthesis [6], 3 fold.
